Assays:
[1] = system: established cell line from human large intestine cancer; assay: MTT cytotoxicity assay (anticancer effect); type: cell-based; conditions: for viability at 1 µM / viability at 10 µM / viability at 100 µM: Homo sapiens, read-out: Survival rate of cancer cells; for viability at 1 µM / viability at 10 µM / viability at 100 µM / Survival rate of cancer cells: 48 hours incubation; for anticancer effect compared to MMC: concentration of 100 μM/L; for Survival rate of cells: 100 μM, MTT assay
Procedure: Cytotoxicity was determined as shown below using MTT method proposed by Mosmann et al. (Mosmann, T.; Rapid colorimetric assay for cellular growth and survival: application proliferation and cytotoxicity assays. J. Immunol. Meth. 65: 55-63, 1983). An established cell line from human large intestine cancer was adjusted on a 10% FCS-containing RPMI 1640 culture solution to have 5×10^3 cells/[…], plated in a 96-well microplate, and incubated for 48 hours. Then, the resultant was added with […] of a peroxide, and incubated under a 5% CO2 condition at 37° C. for 48 hours to determine cytotoxicity by MTT assay^1. MTT assay: Upon completion of the incubation, […] of MTT reagent (5 mg/ml in PBS) was added to each well, and then the formazan left on the bottom of the plate was added with 0.04N HCl to dissolve in isopropanol. OD was measured at a test wavelength and at a reference wavelength of 630 nm.
Survival rate in percentage was calculated by the following equation: Survival rate=(OD test value/OD reference value)×100 (%)

[2] = Solid-state reaction heat by differential thermal analyzer (DSC-50); type: physicochemical; conditions: for Solid reaction heat: solid state, heated to 80-180° C.
Procedure: (§1) Measurement of reaction heat: heat generated by above-mentioned compounds was measured by a differential thermal analyzer.
Heat measurement of a chemiluminescent system peroxide in the solid state was conducted using a differential thermal analyzer as follows: 2 to 3 mg of the peroxide was weighed, filled into an aluminum capsule, and heated gradually to 80-180° C. by DSC-50 (Shimadzu Corporation) to measure the generated heat.
Measurement of reaction heat: heat generated from above-mentioned compounds was measured by the differential thermal analyzer in accordance with above-mentioned [Measurement I]. Thermal measurement of a dioxetane compound in the solid state was carried out as follows: 2 to 3 mg of the dioxetane compound was weighed, filled into an aluminum capsule, and heated gradually to 80-180° C. by DSC-50 (Shimadzu Corporation) to measure the generated heat.

[3] = Solution reaction heat of chemiluminescent reaction started with 1N KOH/MeOH; type: physicochemical
Procedure: Reaction heat and chemiluminescent efficiency relating to chemiluminescent reaction of the peroxides (Chemical formula A to Chemical formula L) were measured. Further, the amount of imidazole formed that indicates generation efficiency of singlet oxygen generated by this reaction was measured.
as §1

Compound	Solid reaction heat ([2]; peroxides)	Solution Reaction heat [3]	viability at 1 µM ([1]; anticancer agent 1 μM/ml)	viability at 10 µM ([1]; anticancer agent 10 μM/ml)	viability at 100 µM ([1]; anticancer agent 100 μM/ml)	further results
OOC1(c2ccccc2)N=C(c2ccc(O)cc2)N=C1c1ccccc1 (centres unmarked) [Chemical formula C, 4-Hydroperoxy-2-(4-hydroxyphenyl)-4,5-diphenyl-4H-imidazole]	53.6 kcal/mol		91.9%	82.2%	11.1%	anticancer effect compared to MMC [1]: comparable to the commercially available MMC; melting point: 125 to 127 °C (dec.)
OOC1(c2ccccc2)N=C(c2cccc(O)c2)N=C1c1ccccc1 (centres unmarked) [Chemical formula D]	47.6 kcal/mol		93.3%	92.2%	71.2%	
OOC1(c2ccccc2)N=C(c2ccccc2O)N=C1c1ccccc1 (centres unmarked) [Chemical formula E, 4-Hydroperoxy-2-(2-hydroxyphenyl)-4,5-diphenyl-4H-isoimidazole]				88.1%	11.8%	anticancer effect compared to MMC [1]: comparable to the commercially available MMC
OOC1(c2cccc(O)c2)N=C(c2ccccc2)N=C1c1cccc(O)c1 (centres unmarked) [Chemical formula F, 4-Hydroperoxy-4,5-bis(3-hydroxyphenyl)-2-phenyl-4H-isoimidazole]				87.4%	42.2%	
OOC1(c2ccc3c(c2)OCCOCCOCCOCCO3)N=C(c2ccccc2)N=C1c1ccc2c(c1)OCCOCCOCCOCCO2 (centres unmarked) [Chemical formula G, Bis(crown ether)iophineperoxide]				87.2%	48.2%	
CC(C)(C)[Si](C)(C)OOC1(c2ccccc2)N=C(c2ccccc2)N=C1c1ccccc1 (centres unmarked) [Chemical formula I, 4-t-Butyldimethylsilylperoxy-2,4,5-triphenyl-4H-isoimidazole]	91.4 kcal/mol		97.2%	95.9%	60.6%	melting point: 93.5 to 96 °C
O=Cc1ccc(C2=NC(OO)(c3ccccc3)C(c3ccccc3)=N2)cc1 (centres unmarked) [Chemical formula K, 2-(4-Formylphenyl)-4-hydroperoxy-4,5-diphenyl-4H-isoimidazole]	15.0 kcal/mol	22.4 kcal/mol				
COc1ccc(C2(OC)OOC23C2CC4CC(C2)CC3C4)cc1 (centres unmarked) [Chemical formula M, 3-(2′-Spiroadamantane)-4-methoxy-4-(4″-methoxy)phenyl-1,2-dioxetane]						Survival rate of cells [1]: 55%; Solid reaction heat ([2]; dioxetanes): 68.8 kcal/mol
COc1cccc(C2(OC)OOC23C2CC4CC(C2)CC3C4)c1 (centres unmarked) [Chemical formula N, 3-(2′-Spiroadamantane)-4-methoxy-4-(3″-methoxy)phenyl-1,2-dioxetane]						Survival rate of cells [1]: 67%; Solid reaction heat ([2]; dioxetanes): 66.8 kcal/mol
OOC1(c2ccccc2)N=C(c2ccc(C3=NC(OO)(c4ccccc4)C(c4ccccc4)=N3)cc2)N=C1c1ccccc1 (centres unmarked) [Chemical formula O]						generation heat [2]: 47.1 kcal/mol
CC(C)(C)[Si](C)(C)OOC1(c2ccccc2)N=C(c2ccc(C3=NC(OO[Si](C)(C)C(C)(C)C)(c4ccccc4)C(c4ccccc4)=N3)cc2)N=C1c1ccccc1 (centres unmarked) [Chemical formula P]						generation heat [2]: 147 kcal/mol
OOC1(c2ccccc2)N=C(c2cccc(C3=NC(OO)(c4ccccc4)C(c4ccccc4)=N3)c2)N=C1c1ccccc1 (centres unmarked) [Chemical formula Q]						generation heat [2]: 30.5 kcal/mol
CC(C)(C)[Si](C)(C)OOC1(c2ccccc2)N=C(c2cccc(C3=NC(OO[Si](C)(C)C(C)(C)C)(c4ccccc4)C(c4ccccc4)=N3)c2)N=C1c1ccccc1 (centres unmarked) [Chemical formula R]						generation heat [2]: 143 kcal/mol
CO[C@@]12[C@H](COC(N)=O)C3=C(C(=O)C(C)=C(N)C3=O)N1C[C@@H]1N[C@@H]12 [MMC, mitomycin C, reference compound]						Survival rate of cancer cells ([1]; anticancer agent 1 μM/ml): 65.0%; Survival rate of cancer cells ([1]; anticancer agent 10 μM/ml): 28.0%; Survival rate of cancer cells ([1]; anticancer agent 100 μM/ml): 14.5%

More lines, main results first:

Solid reaction heat ([2]; peroxides)	Solution Reaction heat [3]	Compound	viability at 1 µM ([1]; anticancer agent 1 μM/ml)	viability at 10 µM ([1]; anticancer agent 10 μM/ml)	viability at 100 µM ([1]; anticancer agent 100 μM/ml)	further results
18.7 kcal/mol	53.8 kcal/mol	OOC1(c2ccccc2)N=C(c2ccccc2)N=C1c1ccccc1 (centres unmarked) [Chemical formula A, 4-Hydroperoxy-2,4,5-triphenyl-4H-isoimidazole]	100%	100%	78.3%	melting point: 108 to 110 °C (dec.)
61.0 kcal/mol	66.3 kcal/mol	CN(C)c1ccc(C2=NC(OO)(c3ccc(F)cc3)C(c3ccc(F)cc3)=N2)cc1 (centres unmarked) [Chemical formula B, 4,5-Bis(4-fluorophenyl)-4-hydroperoxy-2-(4-dimethylaminophenyl)-4H-isoimidazole]	100%	93.7%	37%	melting point: 125 to 128 °C (dec.)
35.3 kcal/mol	46.0 kcal/mol	Nc1ccc(C2=NC(OO)(c3ccccc3)C(c3ccccc3)=N2)cc1 (centres unmarked) [Chemical formula H, 2-(4-Aminophenyl)-4-hydroperoxy-4,5-diphenyl-4H-isoimidazole]	100%	97.5%	87.4%	
52.3 kcal/mol	48.7 kcal/mol	O=[N+]([O-])c1ccc(C2=NC(OO)(c3ccccc3)C(c3ccccc3)=N2)cc1 (centres unmarked) [Chemical formula J]				
50.5 kcal/mol	54.0 kcal/mol	Cc1cc(C)c(C2=NC(OO)(c3ccccc3)C(c3ccccc3)=N2)c(C)c1 (centres unmarked) [Chemical formula L, 4-Hydroperoxy-2-(2′,4′,6′-trimethylphenyl)-4,5-diphenyl-4H-isoimidazole]				

Reference: US20070112061A1, “Heat- or singlet oxygen-generating agents and cancer treatment compositions comprising organic peroxide or chemiluminescent compound” (priority 2004, published 2007)
